Measurements reported in patent publication US11708348B2, “Protease inhibitors for treatment of coronavirus infections” (The Scripps Research Institute, priority 2021, dated 2023).

System: SARS-CoV-2 strain USA-WA1/2020
Experiment: microbe, parasite or virus in culture
Format: cell-based
Details: Severe acute respiratory syndrome coronavirus 2, HeLa-ACE2, 24 h, HeLa-ACE2 cells, SARS-CoV-2 infection, 24 h; class symbols; read-out: EC50, uM (Hela)

SMILES	EC50 [µM]
CC(C)C[C@H](NC(=O)c1ncc(-c2cccc(F)c2)[nH]1)C(=O)N[C@@H](C[C@@H]1CCNC1=O)C(=O)COC(F)(F)F [Compound 209, 5-(3-fluorophenyl)-N-((S)-4-methyl-1-oxo-1-(((S)-3-oxo-1-((S)-2-oxopyrrolidin-3-yl)-4-(trifluoromethoxy)butan-2-yl)amino)pentan-2-yl)-1H-imidazole-2-carboxamide]	< 0.05
COc1ccccc1-c1cnc(C(=O)N[C@@H](CC(C)C)C(=O)N[C@@H](C[C@@H]2CCNC2=O)C(=O)COC(F)(F)F)[nH]1 [Compound 210, 5-(2-methoxyphenyl)-N-((S)-4-methyl-1-oxo-1-(((S)-3-oxo-1-((S)-2-oxopyrrolidin-3-yl)-4-(trifluoromethoxy)butan-2-yl)amino)pentan-2-yl)-1H-imidazole-2-carboxamide]	< 0.05
CC(C)C[C@H](NC(=O)C(=O)NC(C)(C)C(F)(F)F)C(=O)N[C@@H](C[C@@H]1CCNC1=O)C(=O)COC(F)(F)F [Compound 211, N1-((S)-4-methyl-1-oxo-1-(((S)-3-oxo-1-((S)-2-oxopyrrolidin-3-yl)-4-(trifluoromethoxy)butan-2-yl)amino)pentan-2-yl)-N2-(1,1,1-trifluoro-2-methylpropan-2-yl)oxalamide]	< 0.05
CC(C)(NC(=O)C(=O)N[C@@H](CC1CCCCC1)C(=O)N[C@@H](C[C@@H]1CCNC1=O)C(=O)COC(F)(F)F)C(F)(F)F [Compound 212, N1-((S)-3-cyclohexyl-1-oxo-1-(((S)-3-oxo-1-((S)-2-oxopyrrolidin-3-yl)-4-(trifluoromethoxy)butan-2-yl)amino)propan-2-yl)-N2-(1,1,1-trifluoro-2-methylpropan-2-yl)oxalamide]	< 0.05
CC(C)C[C@H](NC(=O)C1CCC(=O)O1)C(=O)N[C@@H](C[C@@H]1CCNC1=O)C(=O)COC(F)(F)F (stereo partly drawn) [Compound 213, N-((S)-4-methyl-1-oxo-1-(((S)-3-oxo-1-((S)-2-oxopyrrolidin-3-yl)-4-(trifluoromethoxy)butan-2-yl)amino)pentan-2-yl)-5-oxotetrahydrofuran-2-carboxamide]	0.5 to 1
CC(C)C[C@H](NC(=O)C1(C)CCCO1)C(=O)N[C@@H](C[C@@H]1CCNC1=O)C(=O)COC(F)(F)F (stereo partly drawn) [Compound 214, 2-methyl-N-((S)-4-methyl-1-oxo-1-(((S)-3-oxo-1-((S)-2-oxopyrrolidin-3-yl)-4-(trifluoromethoxy)butan-2-yl)amino)pentan-2-yl)tetrahydrofuran-2-carboxamide]	0.05 to 0.2
CC1(NC(=O)C(=O)N[C@@H](Cc2cccc(F)c2)C(=O)N[C@@H](C[C@@H]2CCNC2=O)C(=O)COC(F)(F)F)CC1 [Compound 215, N1-((S)-3-(3-fluorophenyl)-1-oxo-1-(((S)-3-oxo-1-((S)-2-oxopyrrolidin-3-yl)-4-(trifluoromethoxy)butan-2-yl)amino)propan-2-yl)-N2-(1-methylcyclopropyl)-oxalamide]	< 0.05
CC(C)C[C@H](NC(=O)C(=O)NC1(c2ccccc2F)CC1)C(=O)N[C@@H](C[C@@H]1CCNC1=O)C(=O)COC(F)(F)F [Compound 216, Nl-(1-(2-fluorophenyl)-cyclopropyl)-N2-((S)-4-methyl-1-oxo-1-(((S)-3-oxo-1-((S)-2-oxopyrrolidin-3-yl)-4-(trifluoromethoxy)butan-2-yl)amino)pentan-2-yl)oxalamide]	< 0.05
CC(C)C[C@H](NC(=O)C(=O)NC1(C)CC1)C(=O)N[C@@H](C[C@@H]1CCNC1=O)C(=O)COC(F)(F)F [Compound 217, N1-((S)-4-methyl-1-oxo-1-(((S)-3-oxo-1-((S)-2-oxopyrrolidin-3-yl)-4-(trifluoromethoxy)butan-2-yl)amino)pentan-2-yl)-N2-(1-methylcyclopropyl)-oxalamide]	< 0.05
O=C(Nc1ccccc1F)C(=O)N[C@@H](CC1CCNC1=O)C(=O)N[C@@H](C[C@@H]1CCNC1=O)C(=O)COC(F)(F)F (stereo partly drawn) [Compound 218, N1-(2-fluorophenyl)-N2-((2S)-1-oxo-1-(((S)-3-oxo-1-((S)-2-oxopyrrolidin-3-yl)-4-(trifluoromethoxy)butan-2-yl)amino)-3-(2-oxopyrrolidin-3-yl)propan-2-yl)oxalamide]	0.5 to 1
